{"source": "patent US10155810B2", "about": "“Provasopressin antagonists and uses thereof” (Woomera Therapeutics, Inc., priority 2011, dated 2018)", "test_system": "recurrent H82 SCLC cells xenografts", "assay": "H82 SCLC xenograft, combination with cyclophosphamide", "type": "in vivo, nu/nu mice", "settings": "cyclophosphamide 50 mg/kg daily for 3 days, then 100 μg MAG-1 daily for 11 days, i.p.", "procedure": "Three groups of nu/nu mice (8 animal per group) were injected with 1×10^7 recurrent H82 SCLC cells per mouse s.c. on the right flank, and the tumors were allowed to grow to an average of about 300 mm^3 in about 14 days. All treatment was carried out by injection intraperitoneally.", "data": [{"compound": "O=P1(N(CCCl)CCCl)NCCCO1", "note": "(stereo not shown) [cyclophosphamide]", "values": [{"measurement": "efficacy of combined therapy on tumor growth", "value": "synergistic efficacy"}]}]}
